Laboratory results: BindingDB's records for PubMed 35777718 (Wuxi Apptec, 2022)

Test: Inhibition of Kir2.1 (unknown origin)

Row | SMILES | IC50
1 | C[C@]1(CN2Cc3nc(-c4ccc(F)cc4)sc3C2)CN=C(N)O1 | > 13.3 µM
2 | C[C@]1(CN2Cc3nc(-c4ccc(F)cc4)sc3C2)Cn2cc([N+](=O)[O-])nc2O1 | > 40 µM
